According to paper PMC8500670, “A selective WDR5 degrader inhibits acute myeloid leukemia in patient-derived mouse models” (Science translational medicine, 2021):

Experiments:
[1] = molecular target: WDR5 (WD40 repeat domain protein 5) (Homo sapiens, UniProt P61964); assay: ITC; […]-Å crystal structure of WDR5-MS67-VCB ternary complex; assay type: binding
FGFR3(h) = FGFR3(h) (Homo sapiens, UniProt P22607); assay: biochemical; design: kinase selectivity panel, activity as per cent of control, single concentration in duplicate; conditions: read-out: % of control remaining
Protocol: (§1) We next assessed selectivity of MS67 against 22 protein methyltransferases (table S2) and a broad panel of common drug targets including 45 kinases (table S3) and 44 G protein–coupled receptors (GPCR), ion channels, and transporters (table S4). […] We subsequently determined that MS67 had moderate binding affinity (Ki = 1.0 ± 0.8 μM) to Sigma 2 receptor (fig. S10).

Plk1(h) = Plk1(h) (Homo sapiens, UniProt P53350); assay: biochemical; design: kinase selectivity panel, activity as per cent of control, single concentration in duplicate; conditions: read-out: % of control remaining
Protocol: as §1

SGK(h) = molecular target: T1, SGK(h) (Homo sapiens, UniProt O00141); assay: biochemical; design: kinase selectivity panel, activity as per cent of control, single concentration in duplicate; conditions: read-out: % of control remaining
T1 construct: gene SGK1
Protocol: as §1

MARK1(h) = MARK1(h) (Homo sapiens, UniProt Q9P0L2); assay: biochemical; design: kinase selectivity panel, activity as per cent of control, single concentration in duplicate; conditions: read-out: % of control remaining
Protocol: as §1

GSK3β(h) = molecular target: T2, GSK3β(h) (Homo sapiens, UniProt P49841); assay: biochemical; design: kinase selectivity panel, activity as per cent of control, single concentration in duplicate; conditions: read-out: % of control remaining
T2 construct: gene GSK3B
Protocol: as §1

Lck(h) = Lck(h) (Homo sapiens, UniProt P06239); assay: biochemical; design: kinase selectivity panel, activity as per cent of control, single concentration in duplicate; conditions: read-out: % of control remaining
Protocol: as §1

CDK2/cyclinA(h) = CDK2/cyclinA(h) (Homo sapiens, UniProt P24941); assay: biochemical; design: kinase selectivity panel, activity as per cent of control, single concentration in duplicate; conditions: read-out: % of control remaining
Protocol: as §1

PKBα(h) = molecular target: T3, PKBα(h) (Homo sapiens, UniProt P31749); assay: biochemical; design: kinase selectivity panel, activity as per cent of control, single concentration in duplicate; conditions: read-out: % of control remaining
T3 construct: gene AKT1
Protocol: as §1

ROCK-I(h) = molecular target: T4, ROCK-I(h) (Homo sapiens, UniProt Q13464); assay: biochemical; design: kinase selectivity panel, activity as per cent of control, single concentration in duplicate; conditions: read-out: % of control remaining
T4 construct: gene ROCK1
Protocol: as §1

Aurora-A(h) = molecular target: T5, Aurora-A(h) (Homo sapiens, UniProt O14965); assay: biochemical; design: kinase selectivity panel, activity as per cent of control, single concentration in duplicate; conditions: read-out: % of control remaining
T5 construct: gene AURKA
Protocol: as §1

c-RAF(h) = molecular target: T6, c-RAF(h) (Homo sapiens, UniProt P04049); assay: biochemical; design: kinase selectivity panel, activity as per cent of control, single concentration in duplicate; conditions: read-out: % of control remaining
T6 construct: gene RAF1
Protocol: as §1

D3 = molecular target: T7, D3 (Homo sapiens, UniProt P35462); assay: biochemical; design: GPCR, ion channel and transporter panel, per cent inhibition of binding, mean of four
T7 construct: gene DRD3
Protocol: as §1

DAT = molecular target: T8, DAT (Homo sapiens, UniProt Q01959); assay: biochemical; design: GPCR, ion channel and transporter panel, per cent inhibition of binding, mean of four
T8 construct: gene SLC6A3
Protocol: as §1

Beta1 = molecular target: T9, Beta1 (Homo sapiens, UniProt P08588); assay: biochemical; design: GPCR, ion channel and transporter panel, per cent inhibition of binding, mean of four
T9 construct: gene ADRB1
Protocol: as §1

5-HT2A = molecular target: T10, 5-HT2A (Homo sapiens, UniProt P28223); assay: biochemical; design: GPCR, ion channel and transporter panel, per cent inhibition of binding, mean of four
T10 construct: gene HTR2A
Protocol: as §1

KOR = molecular target: T11, KOR (Homo sapiens, UniProt P41145); assay: biochemical; design: GPCR, ion channel and transporter panel, per cent inhibition of binding, mean of four
T11 construct: gene OPRK1
Protocol: as §1

Sigma 2 = molecular target: T12, Sigma 2 (Homo sapiens, UniProt Q5BJF2); assay: biochemical; design: GPCR, ion channel and transporter panel, per cent inhibition of binding, mean of four
T12 construct: gene TMEM97
Protocol: as §1

5-HT1A = molecular target: T13, 5-HT1A (Homo sapiens, UniProt P08908); assay: biochemical; design: GPCR, ion channel and transporter panel, per cent inhibition of binding, mean of four
T13 construct: gene HTR1A
Protocol: as §1

5-HT3 = molecular target: T14, 5-HT3 (Homo sapiens, UniProt P46098); assay: biochemical; design: GPCR, ion channel and transporter panel, per cent inhibition of binding, mean of four
T14 construct: gene HTR3A
Protocol: as §1

M4 = molecular target: T15, M4 (Homo sapiens, UniProt P08173); assay: biochemical; design: GPCR, ion channel and transporter panel, per cent inhibition of binding, mean of four
T15 construct: gene CHRM4
Protocol: as §1

5-HT1D = molecular target: T16, 5-HT1D (Homo sapiens, UniProt P28221); assay: biochemical; design: GPCR, ion channel and transporter panel, per cent inhibition of binding, mean of four
T16 construct: gene HTR1D
Protocol: as §1

M1 = molecular target: T17, M1 (Homo sapiens, UniProt P11229); assay: biochemical; design: GPCR, ion channel and transporter panel, per cent inhibition of binding, mean of four
T17 construct: gene CHRM1
Protocol: as §1

Beta2 = molecular target: T18, Beta2 (Homo sapiens, UniProt P07550); assay: biochemical; design: GPCR, ion channel and transporter panel, per cent inhibition of binding, mean of four
T18 construct: gene ADRB2
Protocol: as §1

D1 = molecular target: T19, D1 (Homo sapiens, UniProt P21728); assay: biochemical; design: GPCR, ion channel and transporter panel, per cent inhibition of binding, mean of four
T19 construct: gene DRD1
Protocol: as §1

M5 = molecular target: T20, M5 (Homo sapiens, UniProt P08912); assay: biochemical; design: GPCR, ion channel and transporter panel, per cent inhibition of binding, mean of four
T20 construct: gene CHRM5
Protocol: as §1

T3 sequence (P31749 whole entry): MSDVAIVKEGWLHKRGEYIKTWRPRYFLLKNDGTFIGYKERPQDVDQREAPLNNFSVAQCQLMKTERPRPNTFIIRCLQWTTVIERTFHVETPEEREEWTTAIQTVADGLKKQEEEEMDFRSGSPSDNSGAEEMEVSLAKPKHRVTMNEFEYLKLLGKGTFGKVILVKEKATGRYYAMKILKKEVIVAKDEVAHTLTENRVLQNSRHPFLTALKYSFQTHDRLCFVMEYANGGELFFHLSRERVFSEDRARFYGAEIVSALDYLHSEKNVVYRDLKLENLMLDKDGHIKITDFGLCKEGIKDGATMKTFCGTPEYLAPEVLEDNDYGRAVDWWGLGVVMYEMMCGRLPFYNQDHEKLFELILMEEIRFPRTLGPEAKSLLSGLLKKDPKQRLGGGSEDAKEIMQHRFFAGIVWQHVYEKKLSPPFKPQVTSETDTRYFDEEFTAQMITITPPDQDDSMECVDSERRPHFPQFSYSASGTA
T4 sequence (Q13464 whole entry): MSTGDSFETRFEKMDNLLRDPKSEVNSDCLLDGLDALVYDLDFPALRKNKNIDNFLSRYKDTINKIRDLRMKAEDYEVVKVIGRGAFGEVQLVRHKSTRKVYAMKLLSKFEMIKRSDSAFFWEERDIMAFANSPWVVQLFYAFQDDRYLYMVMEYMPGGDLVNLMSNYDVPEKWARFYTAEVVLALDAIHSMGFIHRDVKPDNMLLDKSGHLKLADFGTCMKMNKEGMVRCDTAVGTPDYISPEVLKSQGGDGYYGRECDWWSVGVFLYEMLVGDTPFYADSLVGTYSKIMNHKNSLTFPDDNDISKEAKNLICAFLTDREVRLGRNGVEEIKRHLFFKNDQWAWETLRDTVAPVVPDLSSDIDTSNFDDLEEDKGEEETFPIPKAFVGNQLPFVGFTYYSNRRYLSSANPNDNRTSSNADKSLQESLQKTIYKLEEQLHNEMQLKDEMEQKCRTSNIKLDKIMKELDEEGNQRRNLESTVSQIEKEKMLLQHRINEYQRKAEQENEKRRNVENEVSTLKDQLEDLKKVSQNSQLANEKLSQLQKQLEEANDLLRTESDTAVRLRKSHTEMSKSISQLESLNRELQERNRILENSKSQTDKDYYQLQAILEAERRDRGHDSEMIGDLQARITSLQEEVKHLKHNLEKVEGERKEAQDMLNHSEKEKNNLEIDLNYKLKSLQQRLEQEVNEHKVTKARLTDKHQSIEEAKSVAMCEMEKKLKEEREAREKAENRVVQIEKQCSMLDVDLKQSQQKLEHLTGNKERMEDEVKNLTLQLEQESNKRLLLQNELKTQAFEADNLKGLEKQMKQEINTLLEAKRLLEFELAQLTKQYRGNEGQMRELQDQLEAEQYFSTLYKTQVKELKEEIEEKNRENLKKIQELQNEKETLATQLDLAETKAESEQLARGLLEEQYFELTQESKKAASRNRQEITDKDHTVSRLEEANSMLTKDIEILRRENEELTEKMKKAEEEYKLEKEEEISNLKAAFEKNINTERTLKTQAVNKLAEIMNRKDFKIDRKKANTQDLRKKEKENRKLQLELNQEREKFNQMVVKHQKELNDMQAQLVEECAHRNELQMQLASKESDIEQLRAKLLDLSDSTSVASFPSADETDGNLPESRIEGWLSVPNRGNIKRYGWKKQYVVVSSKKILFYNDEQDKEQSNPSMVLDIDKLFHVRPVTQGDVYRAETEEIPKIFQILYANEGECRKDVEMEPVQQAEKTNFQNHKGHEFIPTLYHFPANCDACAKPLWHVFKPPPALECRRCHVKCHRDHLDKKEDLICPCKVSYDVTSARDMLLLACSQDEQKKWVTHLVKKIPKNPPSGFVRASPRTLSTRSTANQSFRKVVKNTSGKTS
T18 sequence (P07550 whole entry): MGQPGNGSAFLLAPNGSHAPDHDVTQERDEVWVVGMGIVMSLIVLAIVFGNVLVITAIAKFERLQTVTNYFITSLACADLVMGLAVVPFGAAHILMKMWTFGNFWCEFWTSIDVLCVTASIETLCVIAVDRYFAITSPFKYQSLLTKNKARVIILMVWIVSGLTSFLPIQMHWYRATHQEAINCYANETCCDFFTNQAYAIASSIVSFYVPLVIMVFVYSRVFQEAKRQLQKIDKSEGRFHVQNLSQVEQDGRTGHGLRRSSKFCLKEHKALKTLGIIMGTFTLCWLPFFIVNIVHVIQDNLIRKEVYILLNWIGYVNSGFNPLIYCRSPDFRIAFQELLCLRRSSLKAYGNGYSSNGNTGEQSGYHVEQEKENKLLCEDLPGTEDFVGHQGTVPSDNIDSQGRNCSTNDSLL
T8 sequence (Q01959 whole entry): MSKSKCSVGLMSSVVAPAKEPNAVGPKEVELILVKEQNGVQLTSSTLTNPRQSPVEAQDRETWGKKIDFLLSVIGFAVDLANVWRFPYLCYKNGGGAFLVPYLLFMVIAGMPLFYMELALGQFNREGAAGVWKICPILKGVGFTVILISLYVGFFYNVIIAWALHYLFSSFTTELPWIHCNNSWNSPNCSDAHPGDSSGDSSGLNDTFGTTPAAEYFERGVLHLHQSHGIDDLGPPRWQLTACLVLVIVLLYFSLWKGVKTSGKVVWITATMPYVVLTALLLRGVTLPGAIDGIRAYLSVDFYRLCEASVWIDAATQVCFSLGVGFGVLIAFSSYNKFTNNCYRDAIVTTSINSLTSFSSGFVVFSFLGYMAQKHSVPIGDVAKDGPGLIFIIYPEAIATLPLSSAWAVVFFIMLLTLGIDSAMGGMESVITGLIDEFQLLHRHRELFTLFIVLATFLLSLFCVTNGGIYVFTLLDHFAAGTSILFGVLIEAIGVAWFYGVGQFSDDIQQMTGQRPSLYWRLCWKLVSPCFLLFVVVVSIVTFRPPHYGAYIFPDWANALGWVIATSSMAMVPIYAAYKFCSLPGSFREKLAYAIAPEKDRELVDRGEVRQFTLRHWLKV
Chain of FGFR3(h) (P22607 whole entry): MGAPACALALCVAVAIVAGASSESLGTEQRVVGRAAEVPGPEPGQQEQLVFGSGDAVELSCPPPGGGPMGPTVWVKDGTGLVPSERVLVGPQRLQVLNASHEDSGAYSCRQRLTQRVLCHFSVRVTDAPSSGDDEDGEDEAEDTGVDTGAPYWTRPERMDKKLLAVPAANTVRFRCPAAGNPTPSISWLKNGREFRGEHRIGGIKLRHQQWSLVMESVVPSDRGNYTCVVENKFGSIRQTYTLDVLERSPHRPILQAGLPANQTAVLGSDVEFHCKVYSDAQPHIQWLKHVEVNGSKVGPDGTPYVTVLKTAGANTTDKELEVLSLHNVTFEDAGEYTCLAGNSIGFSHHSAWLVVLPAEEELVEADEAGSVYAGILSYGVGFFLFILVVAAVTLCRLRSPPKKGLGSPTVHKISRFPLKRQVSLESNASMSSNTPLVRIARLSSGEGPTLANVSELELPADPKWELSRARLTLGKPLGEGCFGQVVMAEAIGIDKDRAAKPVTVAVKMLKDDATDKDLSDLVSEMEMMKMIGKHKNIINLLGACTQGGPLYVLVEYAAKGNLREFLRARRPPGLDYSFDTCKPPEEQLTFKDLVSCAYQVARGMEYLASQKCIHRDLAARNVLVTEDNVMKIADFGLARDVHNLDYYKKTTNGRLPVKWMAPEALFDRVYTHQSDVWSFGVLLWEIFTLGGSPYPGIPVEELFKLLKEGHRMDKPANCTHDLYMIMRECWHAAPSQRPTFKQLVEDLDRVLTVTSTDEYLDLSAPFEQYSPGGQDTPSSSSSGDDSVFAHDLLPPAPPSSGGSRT
Chain of Plk1(h) (P53350 whole entry): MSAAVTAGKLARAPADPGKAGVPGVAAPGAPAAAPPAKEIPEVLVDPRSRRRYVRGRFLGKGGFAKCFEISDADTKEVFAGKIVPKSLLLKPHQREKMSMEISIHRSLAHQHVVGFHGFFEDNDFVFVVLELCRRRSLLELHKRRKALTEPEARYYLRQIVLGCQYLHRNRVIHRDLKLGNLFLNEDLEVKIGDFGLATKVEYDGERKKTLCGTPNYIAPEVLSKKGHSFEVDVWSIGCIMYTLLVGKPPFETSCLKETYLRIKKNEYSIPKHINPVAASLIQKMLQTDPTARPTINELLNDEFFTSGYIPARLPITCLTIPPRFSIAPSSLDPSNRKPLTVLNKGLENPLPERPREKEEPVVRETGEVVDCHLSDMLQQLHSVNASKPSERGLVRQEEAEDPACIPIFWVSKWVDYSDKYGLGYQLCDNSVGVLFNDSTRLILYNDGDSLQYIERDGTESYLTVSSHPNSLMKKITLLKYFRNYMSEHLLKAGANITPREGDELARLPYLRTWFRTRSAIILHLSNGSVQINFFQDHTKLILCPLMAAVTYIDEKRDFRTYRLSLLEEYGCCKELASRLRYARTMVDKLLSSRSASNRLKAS
Chain of Lck(h) (P06239 whole entry): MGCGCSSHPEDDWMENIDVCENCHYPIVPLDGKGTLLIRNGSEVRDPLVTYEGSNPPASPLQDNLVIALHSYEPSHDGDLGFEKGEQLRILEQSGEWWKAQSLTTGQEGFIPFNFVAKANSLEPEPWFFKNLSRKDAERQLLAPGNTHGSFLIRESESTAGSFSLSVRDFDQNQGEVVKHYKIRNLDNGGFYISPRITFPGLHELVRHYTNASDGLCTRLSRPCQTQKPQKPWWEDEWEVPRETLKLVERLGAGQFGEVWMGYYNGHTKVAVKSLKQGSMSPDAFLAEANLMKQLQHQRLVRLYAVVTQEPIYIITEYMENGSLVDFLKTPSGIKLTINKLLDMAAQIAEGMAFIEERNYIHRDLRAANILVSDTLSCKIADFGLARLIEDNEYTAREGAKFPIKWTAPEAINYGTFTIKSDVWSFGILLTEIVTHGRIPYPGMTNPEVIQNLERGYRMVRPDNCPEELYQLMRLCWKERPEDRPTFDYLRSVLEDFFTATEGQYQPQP
T12 sequence (Q5BJF2 whole entry): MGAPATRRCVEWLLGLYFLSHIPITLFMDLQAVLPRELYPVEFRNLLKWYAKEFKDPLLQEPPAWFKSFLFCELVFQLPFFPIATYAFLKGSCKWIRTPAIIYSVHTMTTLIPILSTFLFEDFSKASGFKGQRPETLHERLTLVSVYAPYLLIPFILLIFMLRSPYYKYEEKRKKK

Cc1ncsc1-c1ccc([C@H](C)NC(=O)[C@@H]2C[C@@H](O)CN2C(=O)[C@@H](NC(=O)CNC(=O)c2ccc(F)c(-c3ccc(N4C[C@@H](C)N(C)[C@@H](C)C4)c(NC(=O)c4c[nH]c(=O)cc4C(F)(F)F)c3)c2)C(C)(C)C)cc1 [MS67]
Kd [1]: 63 ± 10 nM
remaining activity at 1 µM (FGFR3(h)): 104%
remaining activity at 1 µM (Plk1(h)): 87%
remaining activity at 1 µM (SGK(h)): 113%
remaining activity at 1 µM (MARK1(h)): 100%
remaining activity at 1 µM (GSK3β(h)): 110%
remaining activity at 1 µM (Lck(h)): 97%
remaining activity at 1 µM (CDK2/cyclinA(h)): 91%
remaining activity at 1 µM (PKBα(h)): 93%
remaining activity at 1 µM (ROCK-I(h)): 109%
remaining activity at 1 µM (Aurora-A(h)): 108%
remaining activity at 1 µM (c-RAF(h)): 87%
inhibition at 1 µM (D3): 22.9%
inhibition at 1 µM (DAT): 40.8%
inhibition at 1 µM (Beta1): 16.9%
inhibition at 1 µM (5-HT2A): 11%
inhibition at 1 µM (KOR): 26.3%
inhibition at 1 µM (Sigma 2): 66.6%
inhibition at 1 µM (5-HT1A): 14.3%
inhibition at 1 µM (5-HT3): 26.6%
inhibition at 1 µM (M4): 30.9%
inhibition at 1 µM (5-HT1D): 41.7%
inhibition at 1 µM (M1): 43.6%
inhibition at 1 µM (Beta2): -23%
inhibition at 1 µM (D1): 18.7%
inhibition at 1 µM (M5): 2.36%
